Results published in patent US9289409B2, “Sulindac formulations in a biodegradable material” (Warsaw Orthopedic, Inc., priority 2008, dated 2016).

What was measured:
[1] = test system: Rat Chronic Constriction Injury Model; experiment: von Frey test, mechanical allodynia, rat chronic constriction injury (Bennett) model; format: in vivo, Wistar rat; details: sulindac intraperitoneally 0.4 mg/kg/day; days 8-57; FIG. 4
Source text: (§1) The inventors evaluated the efficacy of a 5 Month Sulindac/Polymer Drug Depot in the Rat Chronic Constriction Injury Model. The animal model was the Bennett Model (Wistar rat). The purpose: To determine whether a 5 month polymer sulindac-eluting depot can improve pain associated behavioral responses in a rat model of neuropathic pain.
(§2) Experimental Design: Four loose chromic gut ligatures, 1 mm apart, were tied around the common sciatic nerve at mid-thigh. Each animal received treatment of test or control article-according to the dosing described in Table 4.
(§3) To date, the inventors have conducted the present study for a period of 57 days and have employed the following two tests: (1) the Hargreaves test on days 7, 14, 21, 28, 35, 42, 49, and 56; and (2) the von Frey test on days 8, 15, 22, 29, 36, 43, 50, and 57. The results of theses tests are summarized in FIGS. 3-6 and show the efficacy of sulindac of the recited time periods.

[2] = test system: Rat Chronic Constriction Injury Model; experiment: Hargreaves test, thermal hyperalgesia, rat chronic constriction injury (Bennett) model; format: in vivo, Wistar rat; details: sulindac intraperitoneally 0.4 mg/kg/day; days 7-56; FIG. 3
Source text: as §1, §2, §3

## CC1=C(CC(=O)O)c2cc(F)ccc2/C1=C\c1ccc([S+](C)[O-])cc1 (centres unmarked) [sulindac]
[1]
  pain behavioral response (percentage of baseline), mechanical allodynia, compared to unloaded polymer depots: reduced the behavioral response
[2]
  pain behavioral response (percentage of baseline), thermal hyperalgesia, compared to unloaded polymer depot: consistently reduced the behavioral response
